Measured values taken from ChEMBL document CHEMBL1140597, “Evaluating scoring functions for docking and designing beta-secretase inhibitors” (Bioorg Med Chem Lett, 2007).

Molecular target: Beta-secretase 1 (Homo sapiens, UniProt P56817)
Assay: Inhibition of BACE1

Chain of Beta-secretase 1 (P56817 whole entry): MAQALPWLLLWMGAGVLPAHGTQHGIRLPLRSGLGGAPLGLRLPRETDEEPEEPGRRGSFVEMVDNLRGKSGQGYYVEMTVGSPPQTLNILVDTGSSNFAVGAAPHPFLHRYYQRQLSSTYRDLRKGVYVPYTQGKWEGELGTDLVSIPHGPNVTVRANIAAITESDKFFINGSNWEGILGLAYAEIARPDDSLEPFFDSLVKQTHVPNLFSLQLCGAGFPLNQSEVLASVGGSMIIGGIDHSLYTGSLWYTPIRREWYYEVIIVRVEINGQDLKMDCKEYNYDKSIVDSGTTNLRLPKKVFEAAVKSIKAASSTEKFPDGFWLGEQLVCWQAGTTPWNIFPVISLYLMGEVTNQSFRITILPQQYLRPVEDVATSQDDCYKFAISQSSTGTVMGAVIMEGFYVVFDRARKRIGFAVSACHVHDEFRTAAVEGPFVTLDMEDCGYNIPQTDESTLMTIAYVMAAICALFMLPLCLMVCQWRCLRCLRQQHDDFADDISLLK

Which IC50 does the source give for `CC(=O)c1ccccc1-c1cc(C(=O)N[C@@H](Cc2ccccc2)[C@H](O)CN[C@H](C)c2ccccc2)cc(C(=O)N[C@H](C)c2ccccc2)c1` here?
Its IC50 is 348 nM.

`CC(=O)c1ccccc1-c1cc(C(=O)N[C@@H](Cc2ccccc2)[C@H](O)CNC2CCC2)cc(C(=O)N[C@H](C)c2ccccc2)c1` was tested. Which IC50 did it give?
The IC50 was 1400 nM.

Which IC50 does the source give for `CC(=O)c1ccccc1-c1cc(C(=O)N[C@@H](Cc2ccccc2)[C@H](O)CN(C)Cc2ccccc2)cc(C(=O)N[C@H](C)c2ccccc2)c1` here?
Its IC50 is > 10000 nM.

How did the Ki turn out when `CC(C)C[C@H](NC(=O)[C@H](CS(C)(=O)=O)NC(=O)[C@@H](NC(=O)OC(C)(C)C)C(C)C)[C@@H](O)C[C@@H](C)C(=O)N[C@H](C(=O)NCc1ccccc1)C(C)C` was run?
Its Ki is 8 nM.

With `CC(=O)c1ccccc1-c1cc(C(=O)N[C@@H](Cc2ccccc2)[C@H](O)CNc2ccccc2)cc(C(=O)N[C@H](C)c2ccccc2)c1` as the compound, how does the IC50 read?
The IC50 was 110 nM.

How did the IC50 turn out when `CC(=O)c1ccccc1-c1cc(C(=O)N[C@@H](Cc2ccccc2)[C@H](O)CN2CCC2)cc(C(=O)N[C@H](C)c2ccccc2)c1` was run?
Its IC50 is > 10000 nM.

How did the IC50 turn out when `CC(=O)c1ccccc1-c1cc(C(=O)N[C@@H](Cc2ccccc2)[C@H](O)CNC(C)C)cc(C(=O)N[C@H](C)c2ccccc2)c1` was run?
The IC50 was 674 nM.

With `CC(=O)c1ccccc1-c1cc(C(=O)N[C@@H](Cc2ccccc2)[C@H](O)CNC2CC2)cc(C(=O)N[C@H](C)c2ccccc2)c1` as the compound, how does the IC50 read?
The IC50 was 317 nM.

H-ELDLAVEF-OH was tested. Which Ki did it give?
Its Ki is 0.3 nM.

With `CC(=O)c1ccccc1-c1cc(C(=O)N[C@@H](Cc2ccccc2)[C@H](O)CNCc2ccccc2)cc(C(=O)N[C@H](C)c2ccccc2)c1` as the compound, how does the IC50 read?
Its IC50 is 115 nM.

`CC(=O)c1ccccc1-c1cc(C(=O)N[C@@H](Cc2ccccc2)[C@H](O)CNCC2CC2)cc(C(=O)N[C@H](C)c2ccccc2)c1` was tested. Which IC50 did it give?
The IC50 was 418 nM.

Which IC50 does the source give for `CC(=O)c1ccccc1-c1cc(C(=O)N[C@@H](Cc2ccccc2)[C@H](O)CN[C@@H](C)c2ccccc2)cc(C(=O)N[C@H](C)c2ccccc2)c1` here?
Its IC50 is 115 nM.

For `CC(=O)c1ccccc1-c1cc(C(=O)N[C@H](CO)Cc2ccccc2)cc(C(=O)N[C@H](C)c2ccccc2)c1`, which IC50 is on record?
The IC50 was 9900 nM.

`C=CCNC[C@@H](O)[C@H](Cc1ccccc1)NC(=O)c1cc(C(=O)N[C@H](C)c2ccccc2)cc(-c2ccccc2C(C)=O)c1` was tested. Which IC50 did it give?
Its IC50 is 223 nM.

For `CSCC[C@H](NC(=O)[C@@H](NC(=O)OC(C)(C)C)C(C)C)C(=O)N[C@@H](CC(C)C)[C@@H](O)C[C@@H](C)C(=O)N[C@H](C(=O)NCc1ccccc1)C(C)C`, which Ki is on record?
Its Ki is 5810 nM.
